Results published in patent US4181573A, “Process for the production of antibiotic X-14547” (Hoffmann-La Roche Inc., priority 1978, dated 1980).
Values after ≈ are worked out from the molar mass of the structure shown. Values joined by “and” are separate entries in the source; they are usually repeats but may differ in a detail not shown here. Equal values may be shown once.

Assays:
[1] = test system: Bacillus sp. TA ATCC 27860; assay: Antimicrobial activity of co-metabolite (M.I.C.); type: cell-based; conditions: ATCC27860
Text: (§1) *Minimum inhibitory concentration per ml. in mcg.

[2] = test system: Escherichia coli ATCC 27856; assay: Antimicrobial activity of co-metabolite (M.I.C.); type: cell-based; conditions: ATCC27856
Text: as §1

[3] = test system: Klebsiella pneumoniae ATCC 27858; assay: Antimicrobial activity of co-metabolite (M.I.C.); type: cell-based; conditions: ATCC27858
Text: as §1

[4] = test system: Paecilomyces varioti ATCC 26820; assay: Antimicrobial activity of co-metabolite (M.I.C.); type: cell-based; conditions: ATCC26820
Text: as §1

[5] = test system: Pseudomonas aeruginosa ATCC 8709; assay: Antimicrobial activity of co-metabolite (M.I.C.); type: cell-based; conditions: ATCC8709
Text: as §1

[6] = test system: Staphylococcus aureus ATCC 6538P; assay: Antimicrobial activity of co-metabolite (M.I.C.); type: cell-based; conditions: ATCC6538P
Text: as §1

gram-positive bacteria = assay: Growth of gram-positive bacteria (summary in words); type: cell-based
[7] = Oral toxicity (LD50) in mice; conditions: mouse, in vivo
[8] = test system: Bacillus megaterium ATCC 8011; assay: Antimicrobial activity, agar well diffusion assay; type: cell-based; conditions: Priestia megaterium, ATCC8011, lowest twofold dilution giving a zone of inhibition, read-out: Minimum inhibitory concentration
Sarcina lutea ATCC 9341 = assay: Antimicrobial activity, agar well diffusion assay; type: cell-based; conditions: Micrococcus luteus, ATCC9341, lowest twofold dilution giving a zone of inhibition, read-out: Minimum inhibitory concentration
[9] = test system: Bacillus species E ATCC 27859; assay: Antimicrobial activity, agar well diffusion assay; type: cell-based; conditions: ATCC27859, lowest twofold dilution giving a zone of inhibition, read-out: Minimum inhibitory concentration
[10] = test system: Bacillus subtilis NRRL 558; assay: Antimicrobial activity, agar well diffusion assay; type: cell-based; conditions: NRRL558, lowest twofold dilution giving a zone of inhibition, read-out: Minimum inhibitory concentration
[11] = test system: Staphylococcus aureus ATCC 6538P; assay: Antimicrobial activity, agar well diffusion assay; type: cell-based; conditions: ATCC6538P, lowest twofold dilution giving a zone of inhibition, read-out: Minimum inhibitory concentration
[12] = test system: Bacillus species TA ATCC 27860; assay: Antimicrobial activity, agar well diffusion assay; type: cell-based; conditions: ATCC27860, lowest twofold dilution giving a zone of inhibition, read-out: Minimum inhibitory concentration
[13] = test system: Mycobacterium phlei ATCC 355; assay: Antimicrobial activity, agar well diffusion assay; type: cell-based; conditions: Mycolicibacterium phlei, ATCC355, lowest twofold dilution giving a zone of inhibition, read-out: Minimum inhibitory concentration
[14] = test system: Streptomyces cellulosae ATCC 3313; assay: Antimicrobial activity, agar well diffusion assay; type: cell-based; conditions: ATCC3313, lowest twofold dilution giving a zone of inhibition, read-out: Minimum inhibitory concentration
[15] = test system: Paecilomyces varioti ATCC 26820; assay: Antimicrobial activity, agar well diffusion assay; type: cell-based; conditions: ATCC26820, lowest twofold dilution giving a zone of inhibition, read-out: Minimum inhibitory concentration
[16] = test system: volatile fatty acids produced in the rumen; assay: In vitro rumen fermentation, ratio of volatile fatty acids (GLC); design: species or system steer; conditions: 4 hrs.; for μmoles C3 /μmoles C2 + μmoles nC4, means / μmoles C3 /μmoles C2 + μmoles nC4, replicate fermentations: 38° C.
Description: Rumen fluid is obtained from a steer with a fistulated rumen. The steer is maintained on the following ration:
The rumen fluid is immediately strained through a #30 mesh sieve. For each fermentation, 75 ml of the resulting fluid is added to a 250 ml flask containing the following:
1 g of 80%:20% finely ground grain: hay ration;
1 ml of an 18% aqueous glucose solution (1 millimole per flask);
1.5 ml of a 3.1% aqueous urea solution (0.76 millimole per flask);
60 micromoles of each of the 10 essential amino acids (arginine, histidine, leucine, methionine, threonine, valine, lysine, isoleucine, phenylalanine,tryptophan);
Carbon dioxide is continuously passed through the hood. […] Three ml of the supernate is added to 1 ml of a 25% metaphosphoric acid solution containing 23 micromoles 2-methyl valeric acid as an internal standard. The resulting fluid is permitted to sit at room temperature for 30 minutes. The fluid is filtered through a […] Millipore filter and refrigerated until gas-liquid chromatographic analyses for volatile fatty acids.

ruminant animals = assay: Efficiency of feed utilization on oral administration; type: in vivo; conditions: administered orally
[17] = test system: DOCA-Na Sprague Dawley (Charles River) male rats; assay: Antihypertensive activity in DOCA-Na hypertensive rats, systolic blood pressure; type: in vivo, rat; conditions: 10 MG/KG × 3 days PO; for SYSTOLIC BLOOD PRESSURE, PCT CHANGE: change from pre drug controls
Description: (§2) Antihypertensive activity is tested for in the DOCA-Na Sprague Dawley (Charles River) male rats weighing 170-210 grams. DOCA-Na hypertension is produced by unilateral nephrectomy followed by subcutaneous implantation of a 25 mg. desoxycortico sterone (DOCA) pellet. Animals are placed in individual cages receiving 0.9% sodium chloride solution and rat chow diet ad libitum. Two weeks are allowed to elapse from the time of surgery for development of hypertension, i.e., systolic blood pressure of at least 150 mm. Hg.
(§3) Systolic blood pressure and heart rate are measured indirectly from the tail of unanesthetized rats, using a pneumatic pulse transducer. Control readings are taken prior to drug and at 1, 3, 6 and 24 hours post drug.
(§4) The results are expressed as absolute values and percent changes from controls.

[18] = test system: DOCA-Na Sprague Dawley (Charles River) male rats; assay: Cardiac rate in DOCA-Na hypertensive rats; type: in vivo, rat; conditions: 10 MG/KG × 3 days PO; for CARDIAC RATE, PCT CHANGE: change from pre drug controls; for CARDIAC RATE, individual rats: rats 1-6
Description: as §2, §3, §4

Compound `CCC1(OC)C(=O)Nc2ccccc21` (stereo not drawn) [3-ethyl-1,3-dihydro-3-methoxy-2H-indole-2-one] has an MIC [1] of 2.5 µg/mL, an MIC [2] of 5 µg/mL and an MIC [3] of 5 µg/mL. The MIC [4] was 2.5 µg/mL, the MIC [5] was 5 µg/mL and the MIC [6] was 5 µg/mL. For the same compound, the “effect on growth of gram-positive bacteria” value (gram-positive bacteria) was “adversely affecting the growth of certain gram-positive bacteria”.
In the case of `CCC(=CC=CC1C=CC2C(CC)CCC2C1C(=O)c1ccc[nH]1)C1OC(C(C)C(=O)O)CCC1C` [Antibiotic X-14547, α-(R), 5 (S)-dimethyl-6(R)-{1-ethyl-4-[4-(R)-(2-pyrrolyl-carbonyl)-1(S)-ethyl-3a(R),4,5(R),7a(R)-tetrahydroindan-5-yl]-1(E), 3(E)-butadienyl}tetrahydropyran-2-acetic acid], the LD50 at 24 h [7] is reported as 129 mg/kg, the MIC [8] is reported as 0.1 µg/mL (≈ 0.203 µM) and the MIC (Sarcina lutea ATCC 9341) is reported as 0.1 µg/mL (≈ 0.203 µM). The MIC [9] was 0.2 µg/mL (≈ 0.405 µM), the MIC [10] was 0.1 µg/mL (≈ 0.203 µM) and the MIC [11] was 0.2 µg/mL (≈ 0.405 µM). For the same compound, the MIC [12] was 0.2 µg/mL (≈ 0.405 µM), the MIC [13] was 3.1 µg/mL (≈ 6.28 µM) and the MIC [14] was 0.8 µg/mL (≈ 1.62 µM). The MIC [15] was 6.3 µg/mL (≈ 12.8 µM), the “effect on growth of gram-positive bacteria” value (gram-positive bacteria) was “adversely affecting the growth of certain gram-positive bacteria” and the “ratio of propionate (C3) to acetates and n-butyrates” value ([16]; 10 and 25 ppm, versus controls) was “significantly improved”. For the same compound, the “μmoles C3 /μmoles C2 + μmoles nC4, means” value ([16]; 10 ppm) was 0.491, the “μmoles C3 /μmoles C2 + μmoles nC4, replicate fermentations” value ([16]; 10 ppm) was 0.493 and 0.489 and the “μmoles C3 /μmoles C2 + μmoles nC4, means” value ([16]; 25 ppm) was 0.521. For the same compound, the “μmoles C3 /μmoles C2 + μmoles nC4, replicate fermentations” value ([16]; 25 ppm) was 0.531 and 0.510, the “efficiency of feed utilization” value (ruminant animals) was “increases the efficiency of feed utilization in ruminant animals” and the “SYSTOLIC BLOOD PRESSURE, MEAN” value ([17]; day 1) was 188.3 mmHg. The “SYSTOLIC BLOOD PRESSURE, PCT CHANGE” value ([17]; day 1) was -9.0 PCT, the “SYSTOLIC BLOOD PRESSURE, individual rats” value ([17]; day 1, rats 1-6) was 216 mmHg and 178 mmHg and 184 mmHg and 198 mmHg and 151 mmHg and 203 mmHg and the “SYSTOLIC BLOOD PRESSURE, MEAN” value ([17]; day 2, first line) was 185.7 mmHg. For the same compound, the “SYSTOLIC BLOOD PRESSURE, PCT CHANGE” value ([17]; day 2, first line) was -10.3 PCT, the “SYSTOLIC BLOOD PRESSURE, individual rats” value ([17]; day 2, first line, rats) was 211 mmHg and 201 mmHg and 176 mmHg and 168 mmHg and 190 mmHg and the “SYSTOLIC BLOOD PRESSURE, MEAN” value ([17]; day 2, second line) was 171.3 mmHg. The “SYSTOLIC BLOOD PRESSURE, PCT CHANGE” value ([17]; day 2, second line) was -17.1 PCT, the “SYSTOLIC BLOOD PRESSURE, individual rats” value ([17]; day 2, second line, rats 1-6) was 184 mmHg and 174 mmHg and 161 mmHg and 165 mmHg and 179 mmHg and the “SYSTOLIC BLOOD PRESSURE, MEAN” value ([17]; day 3, first line) was 205.0 mmHg. For the same compound, the “SYSTOLIC BLOOD PRESSURE, PCT CHANGE” value ([17]; day 3, first line) was -0.7 PCT, the “SYSTOLIC BLOOD PRESSURE, individual rats” value ([17]; day 3, first line, rats 1-6) was 214 mmHg and 195 mmHg and 193 mmHg and 219 mmHg and 198 mmHg and 211 mmHg and the “SYSTOLIC BLOOD PRESSURE, MEAN” value ([17]; day 3, second line) was 196.0 mmHg. The “SYSTOLIC BLOOD PRESSURE, PCT CHANGE” value ([17]; day 3, second line) was -5.2 PCT, the “SYSTOLIC BLOOD PRESSURE, individual rats” value ([17]; day 3, second line, rats 1-6) was 210 mmHg and 177 mmHg and 173 mmHg and 206 mmHg and 190 mmHg and 220 mmHg and the “SYSTOLIC BLOOD PRESSURE, MEAN” value ([17]; day 4) was 202.8 mmHg. The “SYSTOLIC BLOOD PRESSURE, PCT CHANGE” value ([17]; day 4) was -1.7 PCT, the “SYSTOLIC BLOOD PRESSURE, individual rats” value ([17]; day 4, rats 1-6) was 197 mmHg and 172 mmHg and 229 mmHg and 212 mmHg and 179 mmHg and 228 mmHg and the “CARDIAC RATE, MEAN” value ([18]; day 1) was 420.0 BEATS/MIN. For the same compound, the “CARDIAC RATE, PCT CHANGE” value ([18]; day 1) was 2.0 PCT, the “CARDIAC RATE, individual rats” value ([18]; day 1) was 480 BEATS/MIN and 360 BEATS/MIN and 450 BEATS/MIN and 440 BEATS/MIN and 390 BEATS/MIN and 400 BEATS/MIN and the “CARDIAC RATE, MEAN” value ([18]; day 2, first line) was 400.0 BEATS/MIN. The “CARDIAC RATE, PCT CHANGE” value ([18]; day 2, first line) was -2.6 PCT, the “CARDIAC RATE, individual rats” value ([18]; day 2, first line) was 430 BEATS/MIN and 320 BEATS/MIN and 360 BEATS/MIN and 490 BEATS/MIN and 370 BEATS/MIN and the “CARDIAC RATE, MEAN” value ([18]; day 2, second line) was 378.3 BEATS/MIN. For the same compound, the “CARDIAC RATE, PCT CHANGE” value ([18]; day 2, second line) was -8.1 PCT, the “CARDIAC RATE, individual rats” value ([18]; day 2, second line) was 420 BEATS/MIN and 310 BEATS/MIN and 400 BEATS/MIN and 380 BEATS/MIN and 450 BEATS/MIN and the “CARDIAC RATE, MEAN” value ([18]; day 3, first line) was 363.3 BEATS/MIN. For the same compound, the “CARDIAC RATE, PCT CHANGE” value ([18]; day 3, first line) was -11.3 PCT, the “CARDIAC RATE, individual rats” value ([18]; day 3, first line) was 380 BEATS/MIN and 360 BEATS/MIN and 370 BEATS/MIN and 350 BEATS/MIN and the “CARDIAC RATE, MEAN” value ([18]; day 3, second line) was 365.0 BEATS/MIN. The “CARDIAC RATE, PCT CHANGE” value ([18]; day 3, second line) was -10.8 PCT, the “CARDIAC RATE, individual rats” value ([18]; day 3, second line) was 370 BEATS/MIN and 360 BEATS/MIN and 350 BEATS/MIN and 380 BEATS/MIN and the “CARDIAC RATE, MEAN” value ([18]; day 4) was 356.7 BEATS/MIN. The “CARDIAC RATE, PCT CHANGE” value ([18]; day 4) was -13.1 PCT and the “CARDIAC RATE, individual rats” value ([18]; day 4) was 370 BEATS/MIN and 320 BEATS/MIN and 360 BEATS/MIN and 350 BEATS/MIN and 340 BEATS/MIN and 400 BEATS/MIN.
